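Tested at 5 concentrations; 48 h exposure; 96-well plates; endpoints linearly interpolated, else capped at highest concentration. TGI: total growth inhibition.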
Columns and labels:
Experiment in all cases: NCI-60 cell line screen, 48 h
HCT-15 colon = system: HCT-15 colon
MALME-3M melanoma = system: MALME-3M melanoma
HOP-92 NSCLC = system: HOP-92 NSCLC
SK-MEL-5 melanoma = system: SK-MEL-5 melanoma
CAKI-1 renal = system: CAKI-1 renal
HT29 colon = system: HT29 colon
IGROV1 ovarian = system: IGROV1 ovarian
SK-MEL-28 melanoma = system: SK-MEL-28 melanoma
HOP-62 NSCLC = system: HOP-62 NSCLC
SW-620 colon = system: SW-620 colon
LOX IMVI melanoma = system: LOX IMVI melanoma
M19-MEL melanoma = system: M19-MEL melanoma
HL-60(TB) leukemia = system: HL-60(TB) leukemia
HCC-2998 colon = system: HCC-2998 colon
MOLT-4 leukemia = system: MOLT-4 leukemia
NCI-H226 lung = system: NCI-H226 lung
SF-268 CNS = system: SF-268 CNS
UACC-257 melanoma = system: UACC-257 melanoma
XF 498 CNS = system: XF 498 CNS
HCT-116 colon = system: HCT-116 colon
U251 CNS = system: U251 CNS
SK-OV-3 ovarian = system: SK-OV-3 ovarian
786-0 renal = system: 786-0 renal
K-562 leukemia = system: K-562 leukemia
SNB-75 CNS = system: SNB-75 CNS
SF-539 CNS = system: SF-539 CNS
RXF 393 renal = system: RXF 393 renal
KM12 colon = system: KM12 colon
RXF-631 renal = system: RXF-631 renal
NCI-H460 lung = system: NCI-H460 lung
SN12C renal = system: SN12C renal
COLO 205 colon = system: COLO 205 colon
SF-295 CNS = system: SF-295 CNS
OVCAR-4 ovarian = system: OVCAR-4 ovarian
CCRF-CEM leukemia = system: CCRF-CEM leukemia
DLD-1 colon = system: DLD-1 colon
SK-MEL-2 melanoma = system: SK-MEL-2 melanoma
HOP-18 NSCLC = system: HOP-18 NSCLC
A549 NSCLC = system: A549 NSCLC
UO-31 renal = system: UO-31 renal
TK-10 renal = system: TK-10 renal
A498 renal = system: A498 renal
KM20L2 colon = system: KM20L2 colon
DMS 273 small cell lung = system: DMS 273 small cell lung
NCI-H23 lung = system: NCI-H23 lung
ACHN renal = system: ACHN renal
SNB-19 CNS = system: SNB-19 CNS
SR leukemia = system: SR leukemia
LXFL 529 NSCLC = system: LXFL 529 NSCLC
UACC-62 melanoma = system: UACC-62 melanoma
DMS 114 small cell lung = system: DMS 114 small cell lung
EKVX NSCLC = system: EKVX NSCLC
OVCAR-5 ovarian = system: OVCAR-5 ovarian
OVCAR-3 ovarian = system: OVCAR-3 ovarian
M14 melanoma = system: M14 melanoma
NCI-H522 lung = system: NCI-H522 lung
OVCAR-8 ovarian = system: OVCAR-8 ovarian
RPMI-8226 leukemia = system: RPMI-8226 leukemia
SNB-78 CNS = system: SNB-78 CNS

Structure (SMILES): CCOC(=O)C1=C(C)N(Cc2ccccc2)C(C)=C(C(=O)OCC)C1c1ccccc1O
- TGI (HCT-15 colon): > 100 µM
- TGI (MALME-3M melanoma): 73.2 µM
- TGI (HOP-92 NSCLC): 50.6 µM
- TGI (SK-MEL-5 melanoma): 30.3 µM
- TGI (CAKI-1 renal): > 100 µM
- TGI (HT29 colon): > 100 µM
- TGI (IGROV1 ovarian): > 100 µM
- TGI (SK-MEL-28 melanoma): > 100 µM
- TGI (HOP-62 NSCLC): 99.2 µM
- TGI (SW-620 colon): > 100 µM
- TGI (LOX IMVI melanoma): 39.7 µM
- TGI (M19-MEL melanoma): 75.7 µM
- TGI (HL-60(TB) leukemia): 58.6 µM
- TGI (HCC-2998 colon): > 100 µM
- TGI (MOLT-4 leukemia): 32.3 µM
- TGI (NCI-H226 lung): 80.4 µM
- TGI (SF-268 CNS): > 100 µM
- TGI (UACC-257 melanoma): 70.7 µM
- TGI (XF 498 CNS): 51.3 µM
- TGI (HCT-116 colon): > 100 µM
- TGI (U251 CNS): > 100 µM
- TGI (SK-OV-3 ovarian): > 100 µM
- TGI (786-0 renal): > 100 µM
- TGI (K-562 leukemia): > 100 µM
- TGI (SNB-75 CNS): > 100 µM
- TGI (SF-539 CNS): 88.8 µM
- TGI (RXF 393 renal): 60.2 µM
- TGI (KM12 colon): 64.4 µM
- TGI (RXF-631 renal): > 100 µM
- TGI (NCI-H460 lung): > 100 µM
- TGI (SN12C renal): > 100 µM
- TGI (COLO 205 colon): 31.4 µM
- TGI (SF-295 CNS): > 100 µM
- TGI (OVCAR-4 ovarian): > 100 µM
- TGI (CCRF-CEM leukemia): 69.5 µM
- TGI (DLD-1 colon): > 100 µM
- TGI (SK-MEL-2 melanoma): 52.7 µM
- TGI (HOP-18 NSCLC): > 100 µM
- TGI (A549 NSCLC): > 100 µM
- TGI (UO-31 renal): > 100 µM
- TGI (TK-10 renal): > 100 µM
- TGI (A498 renal): 91.4 µM
- TGI (KM20L2 colon): > 100 µM
- TGI (DMS 273 small cell lung): > 100 µM
- TGI (NCI-H23 lung): 57.7 µM
- TGI (ACHN renal): > 100 µM
- TGI (SNB-19 CNS): > 100 µM
- TGI (SR leukemia): 54.9 µM
- TGI (LXFL 529 NSCLC): 71 µM
- TGI (UACC-62 melanoma): 50.2 µM
- TGI (DMS 114 small cell lung): 43.8 µM
- TGI (EKVX NSCLC): 95.9 µM
- TGI (OVCAR-5 ovarian): > 100 µM
- TGI (OVCAR-3 ovarian): 90.8 µM
- TGI (M14 melanoma): > 100 µM
- TGI (NCI-H522 lung): 74.5 µM
- TGI (OVCAR-8 ovarian): > 100 µM

Structure (SMILES): NC(=S)N/N=C(/CC(=O)c1ccccc1)C(=O)Nc1ccc(Cl)c(Cl)c1
- TGI (HCT-15 colon): > 100 µM
- TGI (MALME-3M melanoma): > 100 µM
- TGI (HOP-92 NSCLC): > 100 µM
- TGI (SK-MEL-5 melanoma): > 100 µM
- TGI (CAKI-1 renal): > 100 µM
- TGI (HT29 colon): > 100 µM
- TGI (IGROV1 ovarian): > 100 µM
- TGI (SK-MEL-28 melanoma): > 100 µM
- TGI (HOP-62 NSCLC): > 100 µM
- TGI (SW-620 colon): > 100 µM
- TGI (LOX IMVI melanoma): > 100 µM
- TGI (M19-MEL melanoma): > 100 µM
- TGI (HL-60(TB) leukemia): > 100 µM
- TGI (HCC-2998 colon): > 100 µM
- TGI (MOLT-4 leukemia): 93.7 µM
- TGI (NCI-H226 lung): > 100 µM
- TGI (SF-268 CNS): > 100 µM
- TGI (UACC-257 melanoma): > 100 µM
- TGI (HCT-116 colon): > 100 µM
- TGI (U251 CNS): > 100 µM
- TGI (SK-OV-3 ovarian): > 100 µM
- TGI (786-0 renal): > 100 µM
- TGI (K-562 leukemia): > 100 µM
- TGI (SNB-75 CNS): > 100 µM
- TGI (SF-539 CNS): > 100 µM
- TGI (RXF 393 renal): > 100 µM
- TGI (KM12 colon): > 100 µM
- TGI (NCI-H460 lung): > 100 µM
- TGI (SN12C renal): > 100 µM
- TGI (RPMI-8226 leukemia): > 100 µM
- TGI (COLO 205 colon): > 100 µM
- TGI (SF-295 CNS): > 100 µM
- TGI (OVCAR-4 ovarian): > 100 µM
- TGI (CCRF-CEM leukemia): 91.6 µM
- TGI (DLD-1 colon): > 100 µM
- TGI (SK-MEL-2 melanoma): > 100 µM
- TGI (HOP-18 NSCLC): > 100 µM
- TGI (A549 NSCLC): > 100 µM
- TGI (UO-31 renal): > 100 µM
- TGI (TK-10 renal): > 100 µM
- TGI (SNB-78 CNS): > 100 µM
- TGI (A498 renal): > 100 µM
- TGI (KM20L2 colon): > 100 µM
- TGI (DMS 273 small cell lung): > 100 µM
- TGI (NCI-H23 lung): > 100 µM
- TGI (ACHN renal): > 100 µM
- TGI (SNB-19 CNS): > 100 µM
- TGI (LXFL 529 NSCLC): > 100 µM
- TGI (UACC-62 melanoma): > 100 µM
- TGI (DMS 114 small cell lung): > 100 µM
- TGI (EKVX NSCLC): > 100 µM
- TGI (OVCAR-5 ovarian): > 100 µM
- TGI (OVCAR-3 ovarian): > 100 µM
- TGI (M14 melanoma): > 100 µM
- TGI (NCI-H522 lung): 59.4 µM
- TGI (OVCAR-8 ovarian): > 100 µM

Structure (SMILES): C/C(=N/NC(N)=S)c1ccc2ccccc2c1
- TGI (HCT-15 colon): > 100 µM
- TGI (MALME-3M melanoma): > 100 µM
- TGI (HOP-92 NSCLC): > 100 µM
- TGI (SK-MEL-5 melanoma): > 100 µM
- TGI (HT29 colon): 72.4 µM
- TGI (IGROV1 ovarian): > 100 µM
- TGI (SK-MEL-28 melanoma): > 100 µM
- TGI (HOP-62 NSCLC): > 100 µM
- TGI (SW-620 colon): > 100 µM
- TGI (LOX IMVI melanoma): > 100 µM
- TGI (M19-MEL melanoma): > 100 µM
- TGI (HL-60(TB) leukemia): > 100 µM
- TGI (HCC-2998 colon): 34.9 µM
- TGI (MOLT-4 leukemia): > 100 µM
- TGI (NCI-H226 lung): > 100 µM
- TGI (SF-268 CNS): > 100 µM
- TGI (UACC-257 melanoma): > 100 µM
- TGI (XF 498 CNS): > 100 µM
- TGI (HCT-116 colon): 78.4 µM
- TGI (U251 CNS): 80.4 µM
- TGI (SK-OV-3 ovarian): 51.6 µM
- TGI (SNB-75 CNS): 96.3 µM
- TGI (SF-539 CNS): 44.4 µM
- TGI (RXF 393 renal): 81.8 µM
- TGI (KM12 colon): > 100 µM
- TGI (NCI-H460 lung): 78.1 µM
- TGI (SN12C renal): > 100 µM
- TGI (COLO 205 colon): 41.9 µM
- TGI (SF-295 CNS): > 100 µM
- TGI (OVCAR-4 ovarian): > 100 µM
- TGI (CCRF-CEM leukemia): > 100 µM
- TGI (DLD-1 colon): > 100 µM
- TGI (SK-MEL-2 melanoma): 51.1 µM
- TGI (A549 NSCLC): > 100 µM
- TGI (TK-10 renal): > 100 µM
- TGI (SNB-78 CNS): > 100 µM
- TGI (A498 renal): > 100 µM
- TGI (KM20L2 colon): 80.4 µM
- TGI (DMS 273 small cell lung): 90.9 µM
- TGI (NCI-H23 lung): > 100 µM
- TGI (ACHN renal): > 100 µM
- TGI (SNB-19 CNS): > 100 µM
- TGI (SR leukemia): > 100 µM
- TGI (LXFL 529 NSCLC): > 100 µM
- TGI (UACC-62 melanoma): 28.6 µM
- TGI (DMS 114 small cell lung): 49.9 µM
- TGI (EKVX NSCLC): 37.3 µM
- TGI (OVCAR-5 ovarian): 86 µM
- TGI (OVCAR-3 ovarian): > 100 µM
- TGI (M14 melanoma): 79.1 µM
- TGI (NCI-H522 lung): 41 µM
- TGI (OVCAR-8 ovarian): > 100 µM

Source: PubChem BioAssay (NCI)
